From PMC5732813, “Novel piplartine-containing ruthenium complexes: synthesis, cell growth inhibition, apoptosis induction and ROS production on HCT116 cells” (Oncotarget, 2017)
Where “and” joins values, the source holds several entries; their conditions need not be identical. Identical values can stand only once.

Tests used:
[1] = tested on: PBMC (human peripheral blood mononuclear cells); experiment: Cytotoxic activity, alamar blue assay, PBMC non-cancer cells; type: cell-based; conditions: Homo sapiens; PBMC non-cancer cells, 72h of incubation, alamar blue; with 95% confidence interval; read-out: IC50
Method: PBMCs were washed and resuspended at a concentration of 3 x 10^5 cells/mL in RPMI 1640 medium with 20% fetal bovine serum, 2 mM glutamine and 50 μg/mL gentamycin at 37°C with 5% CO2. […] The Research Ethics Committee of the Oswaldo Cruz Foundation (Salvador, Bahia, Brazil) approved the experimental protocol (# 031019/2013). All participants signed a written informed consent to participate in the study.
Cell viability was quantified using the alamar blue assay, according to Ahmed et al.. Cells were inserted in 96-well plates for all experiments (7 x 10^4 cells/mL for adherent cells or 3 x 10^5 cells/mL for suspended cells in 100 μL of medium). […] Negative controls received the vehicle that was used for diluting the compounds tested.

[2] = tested on: HCT116 cells; experiment: Gene expression analysis by qPCR array (TaqMan Array Human Molecular Mechanisms of Cancer); type: cell-based; conditions: HCT116, 12 h, DOX 1 μM, PL 10 μM, 1 2.5 μM, 2 5 μM, negative control RQ = 1.0
Method: HCT116 cells were plated in bottles tissue culture (7x10^4 cells/mL). After 12h of incubation with the complexes, total RNA was isolated from the cells using the RNeasy Plus mini kit (Qiagen, Hilden, Germany) according to the manufacturer’s instructions. The RNA was evaluated by fluorimetry (QuBit™, Life Technologies, Camarillo, CA, EUA). RNA reverse transcription was performed using Superscript VILO™ (Invitrogen Corporation, Waltham, MA, USA). A 96-well plate TaqMan® Array Human Molecular Mechanisms of Cancer (ID 4418806, Applied Biosystems™, Foster City, CA, EUA) was used for the gene expression study by qPCR. The reactions were conducted in the ABI ViiA7 (Applied Biosystems™, Foster City, CA, EUA). The cycle conditions comprised 2 min at 50 °C, 20 s at 95 °C, then 40 cycles of 3 s at 95 °C and 30 s at 60 °C. […] The GAPDH, 18S and HPRT1 genes were used for normalization. All experiments were performed in DNase/RNase free conditions.

With `COc1cccc2c1C(=O)c1c(O)c3c(c(O)c1C2=O)C[C@@](O)(C(=O)CO)C[C@@H]3O[C@H]1C[C@H](N)[C@H](O)[C@H](C)O1` [Doxorubicin] the IC50 [1] was 5.4 µM, the “RQ ABL1” value [2] was 0.912 and the “RQ AKT1” value [2] was 1.840. The “RQ AKT2” value [2] was 3.877, the “RQ APC” value [2] was 0.908 and the “RQ BAX” value [2] was 3.274. For the same compound, the “RQ BCAR1” value [2] was 1.809, the “RQ BCL2L1” value [2] was 2.391 and the “RQ BCL2L11” value [2] was 1.152. For the same compound, the “RQ BID” value [2] was 1.757, the “RQ BRAF” value [2] was 0.513 and the “RQ CASP9” value [2] was 0.530. The “RQ CCND3” value [2] was 1.438, the “RQ CCNE1” value [2] was 0.894 and the “RQ CDC42” value [2] was 1.271. For the same compound, the “RQ CDK2” value [2] was 1.257, the “RQ CDK4” value [2] was 0.983 and the “RQ CDKN1A” value [2] was 2.853. The “RQ CDKN1B” value [2] was 0.766, the “RQ CRK” value [2] was 0.867 and the “RQ CTNNB1” value [2] was 0.939. The “RQ DVL1” value [2] was 1.252, the “RQ E2F1” value [2] was 1.018 and the “RQ ELK1” value [2] was 1.263. For the same compound, the “RQ ERBB2” value [2] was 2.605, the “RQ FAS” value [2] was 2.372 and the “RQ FGF2” value [2] was 0.625. The “RQ GRB2” value [2] was 0.761, the “RQ GSK3B” value [2] was 1.342 and the “RQ GUSB” value [2] was 5.0. For the same compound, the “RQ HRAS” value [2] was 0.691, the “RQ ITGB1” value [2] was 0.489 and the “RQ ITGB3” value [2] was 5.579. For the same compound, the “RQ KRAS” value [2] was 0.951, the “RQ MAPK1” value [2] was 0.903 and the “RQ MAPK8” value [2] was 1.185. The “RQ MAPK14” value [2] was 0.786, the “RQ MDM2” value [2] was 1.479 and the “RQ MYC” value [2] was 0.876. The “RQ NFKB1” value [2] was 0.784, the “RQ NFKB2” value [2] was 1.250 and the “RQ NRAS” value [2] was 0.556. The “RQ PIK3CA” value [2] was 0.409, the “RQ RB1” value [2] was 0.532 and the “RQ RELA” value [2] was 0.862. For the same compound, the “RQ RHOA” value [2] was 0.900, the “RQ SRC” value [2] was 1.383 and the “RQ TCF3” value [2] was 1.135. The “RQ TGFB1” value [2] was 0.495, the “RQ TGFBR1” value [2] was 1.216 and the “RQ VEGFA” value [2] was 0.610. The “RQ BCL2” value ([2]; listed as DOX) was 3.1 and 3.090, the “RQ CCND1” value ([2]; listed as DOX) was 1.1 and 1.124 and the “RQ CDH1” value ([2]; listed as DOX) was 7.1 and 7.107. For the same compound, the “RQ CDKN2A” value ([2]; listed as DOX) was 1.8 and 1.793, the “RQ CYCS” value ([2]; listed as DOX) was 1.0 and 0.993 and the “RQ EGFR” value ([2]; listed as DOX) was 0.8 and 0.831. The “RQ FADD” value ([2]; listed as DOX) was 1.1 and 1.049, the “RQ FN1” value ([2]; listed as DOX) was 3.6 and 3.575 and the “RQ FOS” value ([2]; listed as DOX) was 11.8 and 11.834. The “RQ FYN” value ([2]; listed as DOX) was 1.3 and 1.248, the “RQ FZD1” value ([2]; listed as DOX) was 1.0 and 0.994 and the “RQ IGF1R” value ([2]; listed as DOX) was 1.4 and 1.389. The “RQ ITGA2B” value ([2]; listed as DOX) was 4.5 and 4.514, the “RQ ITGAV” value ([2]; listed as DOX) was 1.3 and 1.265 and the “RQ JUN” value ([2]; listed as DOX) was 4.1 and 4.073. For the same compound, the “RQ MAP2K1” value ([2]; listed as DOX) was 0.7 and 0.681, the “RQ MAP3K5” value ([2]; listed as DOX) was 1.0 and 1.006 and the “RQ MAPK3” value ([2]; listed as DOX) was 2.8 and 2.758. For the same compound, the “RQ NFKBIA” value ([2]; listed as DOX) was 2.3 and 2.326, the “RQ PIK3R1” value ([2]; listed as DOX) was 2.0 and 1.999 and the “RQ PTEN” value ([2]; listed as DOX) was 1.8 and 1.750. For the same compound, the “RQ PTK2” value ([2]; listed as DOX) was 1.2 and 1.182, the “RQ PTK2B” value ([2]; listed as DOX) was 3.4 and 3.368 and the “RQ RAC1” value ([2]; listed as DOX) was 0.9 and 0.845. The “RQ RAF1” value ([2]; listed as DOX) was 2.0 and 2.027, the “RQ SHC1” value ([2]; listed as DOX) was 0.6 and 0.640 and the “RQ SMAD4” value ([2]; listed as DOX) was 1.0 and 0.963. The “RQ SOS1” value ([2]; listed as DOX) was 0.7 and 0.741, the “RQ SPP1” value ([2]; listed as DOX) was 1.2 and 1.165 and the “RQ TGFBR2” value ([2]; listed as DOX) was 0.9 and 0.914. For the same compound, the “RQ TP53” value ([2]; listed as DOX) was 3.3 and 3.250.
